According to patent US12702715B2, “Targeted RNA degradation allows precision repurposing of protein-targeted small molecule medicines to RNA” (University of Florida Research Foundation, Incorporated, priority 2020, dated 2026):
Entries after “also recorded” stand apart in the source; their conditions may differ.

How the values were obtained:
[1] = target: T1, RNase L / pre-miR-21 ternary complex (Homo sapiens, UniProt Q05823); assay: RNase L immunoprecipitation; assay type: cell-based; details: 1 μM, MDA-MB-231
T1 construct: endogenous in cells; host or cells: MDA-MB-231
T1 sequence (Q05823 1-741): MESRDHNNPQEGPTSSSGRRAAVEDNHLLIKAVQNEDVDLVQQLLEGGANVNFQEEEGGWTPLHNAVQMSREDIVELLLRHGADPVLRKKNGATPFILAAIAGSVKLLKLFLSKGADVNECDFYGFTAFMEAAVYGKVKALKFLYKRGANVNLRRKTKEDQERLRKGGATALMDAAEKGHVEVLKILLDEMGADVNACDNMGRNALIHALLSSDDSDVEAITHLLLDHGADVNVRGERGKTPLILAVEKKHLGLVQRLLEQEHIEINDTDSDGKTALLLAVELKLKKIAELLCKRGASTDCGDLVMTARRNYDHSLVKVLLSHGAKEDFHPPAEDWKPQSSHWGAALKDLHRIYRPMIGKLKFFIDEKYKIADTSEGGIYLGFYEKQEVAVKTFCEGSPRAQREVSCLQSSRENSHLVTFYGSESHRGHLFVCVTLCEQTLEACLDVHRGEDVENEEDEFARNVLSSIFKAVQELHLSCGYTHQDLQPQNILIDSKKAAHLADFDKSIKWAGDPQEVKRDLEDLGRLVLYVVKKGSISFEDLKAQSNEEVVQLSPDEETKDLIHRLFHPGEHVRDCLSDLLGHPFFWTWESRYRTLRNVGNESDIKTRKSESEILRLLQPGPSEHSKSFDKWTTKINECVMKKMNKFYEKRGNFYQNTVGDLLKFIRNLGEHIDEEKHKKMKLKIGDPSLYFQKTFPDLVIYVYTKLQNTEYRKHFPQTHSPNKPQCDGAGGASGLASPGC
Description: RNase L Immunoprecipitation. MDA-MB-231 cells were seed in 6-well plates and were treated with vehicle, 4 (1 μM) or 5 (1 μM) when the cells reached ~70% confluency. After 48 h, the cells were harvested and lysed in 100 μL of M-PER buffer containing protease inhibitor and RNaseOUT recombinant Ribonuclease Inhibitor (Invitrogen) on ice for 20 min. The lysate was centrifuged at 13,000×g for 15 min, and the supernatants were incubated with Dynabeads Protein A (Life Technologies) bound to RNase L mouse primary antibody or β-actin mouse primary antibody overnight at 4° C. After incubation, the beads were washed with 1×DPBS containing 0.02% (v/v) Tween-20, and RNA was extracted by using a miRNeasy Mini Kit (Qiagen) per the manufacturer's instructions. RT-qPCR was performed as described above. Relative RNA levels were determined by ΔΔCt method by normalizing to 18S rRNA levels. Normalized fold change was calculated as previously described^6.

pre-miR-21 = assay: RT-qPCR of pre-miR-21 levels in MDA-MB-231 cells; assay type: cell-based, human; details: MDA-MB-231, RT-qPCR
Description: Cell Culture. Cells were cultured at 37° C. and 5% CO2. MDA-MB-231 cells (HTB-26, ATCC) were cultured in RMPI 1640 medium with L-glutamine & 25 mM HEPES supplemented with 1× Antibiotic/Antimycotic solution (Corning) and 10% FBS. MCF-10A cells (CRL-10317, ATCC) were cultured in 1×DMEM/F12 50/50 with L-glutamine & 15 mM HEPES (Corning) supplemented with 20% FBS, 1× Antibiotic/Antimycotic solution, 20 ng/mL human epidermal growth factor (Pepro Tech, Inc.), 10 μg/mL insulin (Sigma-Aldrich), and […] hydrocortisone (Pfaltz & Bauer). For compound treatment, compound stocks either in DMSO or water were diluted in growth medium and added to cells for the indicated time. Plasmid DNA to overexpress pre-miR-21 in pcDNA 3.1 (Addgene 21114) or a plasmid DNA encoding the pre-miR-21 mutant (custom purchased from GenScript USA, Inc.) was transfected with jetPRIME per the manufacturer's protocol. After transfection, the medium was replaced with growth medium containing the compound of interest, prepared as described above. The RNase L-targeting siRNA or a control siRNA was transfected with Lipofectamine RNAiMAX reagent (Invitrogen) per the manufacturer's protocol.
RNA Isolation and Quantitative Real-Time PCR (RT-qPCR). After treatment, total RNA was extracted and purified by using the Zymo Quick-RNA mini prep kit per the manufacturer's protocol. Reverse Transcription (RT) for mature miRNAs as well as pri- and pre-miR-21 was completed on 200 ng of RNA by using a miScript 11 RT kit (QIAGEN) according to manufacturer's protocol. RT of mRNAs was performed by using QScript kit (Quanta Bio). An Applied Biosystems QS5 384-well PCR system was used to complete qPCR experiments using Power Sybr Green Mater Mix (Life Technologies) as described previously^6.

[2] = system: 3×2 RNA internal loop library (3×2 ILL); assay: AbsorbArray 2DCS selection with Inforna fitness analysis; assay type: binding, human; details: Zobs>8
Description: Construction of AbsorbArray Small Molecule Microarrays. Microarrays were constructed as previously reported^4. Briefly, a 1% agarose solution was poured onto a glass slide and dried on the benchtop. A 200 nL aliquot of 68 hit compounds (10 mM in DMSO) was pinned onto the array from a 384-well plate using Biomek NXP Laboratory Automation Workstation. Slides were then dried overnight to obtain a thin, invisible agarose layer. Slides were washed three times with 1×PBST^5 and then three times with nanopure water. Slides were dried completely in the air before RNA selection, completed by Two-Dimensional Combinatorial Screening (2DCS).
RNA Selection and Screening by 2DCS. The 3×2 RNA ILL was 5′-end ^32P-labeled as previously described^7 and 2DCS selections were completed as previously described 4. All oligonucleotides were folded as described in the “Solution-based Dye Displacement Assay” section. Small molecule microarrays were pre-equilibrated by 3 mL 1× AB2 for 5 min. After removing the pre-equilibration buffer, 5′-end labeled folded 3×2 RNA ILL (~50,000 cpm) was added in 3 mL 1× AB2 containing 1 mM MgCl2 in the presence of competitor oligonucleotides (100 μM each). The oligonucleotide solution was evenly distributed across the microarray surface with a custom-cut piece of Parafilnm. After incubating for 30 min at room temperature, the Parafilm was removed, and the slide was washed gently by submersion in 1× AB2 for 30 s. This washing step was repeated three additional times, and the array was dried on the benchtop for 1 h. […] To harvest and collect the bound RNAs from the ILL, 1 μL of nanopure water was added to each spot. After 30 s, the water drop was absorbed into agarose gel, hydrating it such that it could be excised with a toothpick. The RNAs were eluted from the agarose by simple incubation with water, and then treated with RNase-free DNase I. A unique barcode for each small molecule was installed by reverse transcription (RT). Barcoded RNAs were amplified by PCR, purified, and identified by next-generation sequencing (NGS) using an Ion Proton deep sequencer using PI chips (60-80 million reads) as previously described^2.

FLT3 = target: T2, FLT3 (Homo sapiens, UniProt P36888); assay: Cellular Chem-CLIP/C-Chem-CLIP to study occupancy of an RTK; assay type: cell-based; details: 0.01-10 μM pre-treatment
T2 construct: endogenous in cells; host or cells: MDA-MB-231
T2 sequence (P36888 27-993): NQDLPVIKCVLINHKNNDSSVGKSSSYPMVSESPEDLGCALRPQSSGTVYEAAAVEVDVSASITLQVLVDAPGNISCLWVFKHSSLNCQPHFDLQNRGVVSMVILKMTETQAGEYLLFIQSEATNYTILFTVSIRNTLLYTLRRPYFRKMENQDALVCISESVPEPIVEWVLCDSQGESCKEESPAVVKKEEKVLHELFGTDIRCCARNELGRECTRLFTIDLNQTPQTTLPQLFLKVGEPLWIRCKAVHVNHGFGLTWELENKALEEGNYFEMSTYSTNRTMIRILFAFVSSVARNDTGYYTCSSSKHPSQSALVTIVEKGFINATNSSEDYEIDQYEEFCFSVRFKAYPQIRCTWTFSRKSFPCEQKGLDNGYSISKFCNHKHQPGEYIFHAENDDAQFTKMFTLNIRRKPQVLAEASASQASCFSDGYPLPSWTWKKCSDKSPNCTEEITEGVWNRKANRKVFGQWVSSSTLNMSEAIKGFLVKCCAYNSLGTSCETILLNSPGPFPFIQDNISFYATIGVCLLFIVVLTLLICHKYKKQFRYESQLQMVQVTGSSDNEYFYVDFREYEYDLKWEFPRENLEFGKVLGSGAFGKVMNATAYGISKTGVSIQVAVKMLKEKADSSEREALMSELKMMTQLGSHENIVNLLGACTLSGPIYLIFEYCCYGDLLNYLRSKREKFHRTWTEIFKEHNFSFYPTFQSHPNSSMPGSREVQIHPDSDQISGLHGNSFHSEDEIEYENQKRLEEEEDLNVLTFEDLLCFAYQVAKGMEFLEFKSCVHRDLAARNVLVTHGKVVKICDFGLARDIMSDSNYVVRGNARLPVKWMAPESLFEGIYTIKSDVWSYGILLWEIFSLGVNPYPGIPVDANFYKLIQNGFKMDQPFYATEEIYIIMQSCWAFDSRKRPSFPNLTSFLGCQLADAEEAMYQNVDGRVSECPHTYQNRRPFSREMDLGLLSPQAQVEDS
Description: Cellular Chem-CLIP/C-Chem-CLIP to Study Occupancy of an RTK. Compound treatment and isolation of cells was completed as described for cellular occupancy studies of pre-miR-21. Total protein was extracted and concentration determined as described in the “Western Blotting” section. Approximately 1 mg of total protein was used for following pull-down experiments, using a protocol adapted from a previously published method 8. Protein cross-linked to the probe were clicked to disulfide biotin azide as described above except the amount of each reagents was doubled (20 μL/sample). Then, to the mixture was added ice-cold, 4:1 mixture of methanol/chloroform (2.5 mL) followed by 1 mL of ice-cold 1×DPBS. The mixture was centrifuged at 5000×g for 10 min at 4° C. to fractionate a protein interphase between organic and aqueous layers. […] The washed protein mixture was centrifuged at 5000×g for 10 min at 4° C. to pellet the protein. The pellet was dissolved in H2O, and to this solution was added 20 μLL streptavidin beads for 30 min at room temperature. The solution was removed, and the beads were washed once with 0.2% SDS in 1×DPBS, twice with detergent-free 1×DPBS and twice with nanopure water. After these washing steps, protein was cleaved as described above. The supernatant was collected, and protein concentration was determined with Pierce Micro BCA Protein Assay kit. […] Sample preparation was completed as described above for cellular Chem-CLIP studies. Western blotting was performed on total protein (10 μg) before or after pull-down, indicated as “Input” or “Output”, as described in Western Blotting.

Structure (SMILES)	enrichment of pre-miR-21 in RNase L immunoprecipitation [1]	number of binding RNA motifs [2]	pre-miR-21 levels (pre-miR-21)	competition of FLT3 enrichment by probe 4 (FLT3)
COc1ccc(NC(=O)[C@H](CCCCN)NC(=O)c2cc(NC(=O)[C@H](CCCCN)NC(=O)c3cc(NC(=O)[C@H](CCCCN)NC(=O)c4cc(NC(=O)[C@@H](N)CCCCN)ccc4OC)ccc3OC)ccc2OC)cc1C(N)=O [Delparantag]		284		
NCCCNc1ccc2c3c(nn2CCNCCO)-c2c(O)ccc(O)c2C(=O)c13 [Piroxantrone]		278		
CCCNC(=O)NCCN1CCN(c2ccc3[nH]c(-c4c(N)c5c(F)cccc5[nH]c4=O)nc3c2)CC1 [Compound 8]				competed off

Now from value to molecule, other results behind:

enrichment of pre-miR-21 in RNase L immunoprecipitation [1]	number of binding RNA motifs [2]	Structure (SMILES)	pre-miR-21 levels (pre-miR-21)	competition of FLT3 enrichment by probe 4 (FLT3)
not		CCOC(=O)C1=C(Nc2ccccc2)S/C(=C\c2ccc(OCCOCCOCCOCCNC(C)=O)c(O)c2)C1=O [Compound 6]	had no effect	
not		CCOC(=O)C1=C(Nc2ccccc2)S/C(=C\c2ccc(O)c(OCCOCCOCCOCCNC(=O)NCCN3CCN(c4ccc5[nH]c(-c6c(N)c7c(F)cccc7[nH]c6=O)nc5c4)CC3)c2)C1=O [Compound 7]	increasing pre-miR-21 levels	competed off; also recorded: between that observed for 1 and 2
	274	CN1c2ccccc2Sc2ccc(CC(=O)O)cc21 [Metiazinic Acid]		
